Laboratory results taken from ChEMBL document CHEMBL2440100, “Therapeutic potential of the peptide leucine arginine as a new nonplant bowman-birk-like serine protease inhibitor” (J Med Chem, 2013).
Calls of active or inactive are those of the source. The rule behind the calls is not given here. Where a SMILES comes first, the peptide text is derived from it. Bridges are numbered along the chain shown (N, C = ends).

How the values were obtained:
[1] = species: Mus musculus; experiment: Antiasthmatic activity in OVA-immunized BALB/c mouse chronic asthma model assessed as decrease in number of eosinophils in BAL fluid at 100 nM treated intranasally on days 15, 16, 22, and 23 at 30 mins before OVA challenge measured on day 71; format: functional, organism-based
[2] = species: Mus musculus; experiment: Antiasthmatic activity in OVA-immunized BALB/c mouse chronic asthma model assessed as reduction of area of proliferating smooth muscle cell at 100 nM treated intranasally on days 15, 16, 22, and 23 at 30 mins before OVA challenge measured on day 71 by PCNA+-staining; format: functional, organism-based
[3] = species: Mus musculus; experiment: Antiasthmatic activity in OVA-immunized BALB/c mouse chronic asthma model assessed as reduction of 8-isoprostane level in serum at 10 uM treated intranasally by immunoassay; format: functional, organism-based
[4] = species: Mus musculus; experiment: Antiasthmatic activity in OVA-immunized BALB/c mouse chronic asthma model assessed as reduction of collagen and old fibrin at 100 nM treated intranasally on days 15, 16, 22, and 23 at 30 mins before OVA challenge measured on day 71 by martius scarlet blue-staining; format: functional, organism-based
[5] = species: Mus musculus; experiment: Antiasthmatic activity in lymphnode cells isolated from 25 days OVA-immunized BALB/c mouse acute asthma model assessed as reduction of IL-13 and IL-5 production at 100 nM measured after 3 days re-stimulation by ELISA; format: functional, cell-based
[6] = species: Mus musculus; experiment: Antiasthmatic activity in OVA-immunized BALB/c mouse chronic asthma model assessed as reduction of total lung collagen level at 100 nM treated intranasally on days 15, 16, 22, and 23 at 30 mins before OVA challenge measured on day 71 by MSB-staining; format: functional, organism-based
[7] = species: Mus musculus; experiment: Antiasthmatic activity in OVA-immunized BALB/c mouse chronic asthma model assessed as inhibition of airway remodeling at 100 nM treated intranasally on days 15, 16, 22, and 23 at 30 mins before OVA challenge measured on day 71; format: functional, organism-based
[8] = species: Mus musculus; experiment: Antiasthmatic activity in OVA-immunized BALB/c mouse chronic asthma model assessed as reduction of decrease in smooth muscle area at 100 nM treated intranasally on days 15, 16, 22, and 23 at 30 mins before OVA challenge measured on day 71 by alpha-SMA-staining; format: functional, organism-based; settings: Muscle tissue
[9] = species: Mus musculus; experiment: Antiasthmatic activity in OVA-immunized BALB/c mouse acute asthma model assessed as reduction of mucus production in PAS-stained lung section at 100 nM treated intranasally on days 15, 16, 22, and 23 at 30 mins before OVA challenge; format: functional, organism-based
[10] = species: Mus musculus; experiment: Antiasthmatic activity in OVA-immunized BALB/c mouse acute asthma model assessed as decrease in number of eosinophils in BAL fluid at 100 nM treated intranasally on days 15, 16, 22, and 23 at 30 mins before OVA challenge; format: functional, organism-based
[11] = species: Mus musculus; experiment: Antiasthmatic activity in OVA-immunized BALB/c mouse acute asthma model assessed as reduction of methacholine-induced lung resistance at 100 nM treated intranasally on days 15, 16, 22, and 23 at 30 mins before OVA challenge; format: functional, organism-based
[12] = species: Mus musculus; experiment: Antiasthmatic activity in OVA-immunized BALB/c mouse chronic asthma model assessed as inhibition of tryptase-like protease activity in BAL fluid using tosyl-gly […]-lys-pNA as substrate at 100 nM after 1 hr relative to control; format: functional
[13] = system: Splenocyte; experiment: Antiasthmatic activity in splenocytes isolated from 25 days OVA-immunized BALB/c mouse acute asthma model assessed as reduction of IL-13 and IL-5 production at 100 nM measured after 3 days re-stimulation by ELISA; format: functional, cell-based
[14] = species: Mus musculus; experiment: Antiasthmatic activity in OVA-immunized BALB/c mouse acute asthma model assessed as reduction of airway inflammation at 100 nM treated intranasally on days 15, 16, 22, and 23 at 30 mins before OVA challenge by hematoxylin and eosin staining; format: functional, organism-based
[15] = species: Mus musculus; experiment: Antiasthmatic activity in OVA-immunized BALB/c mouse chronic asthma model assessed as reduction of airway inflammation at 100 nM treated intranasally on days 15, 16, 22, and 23 at 30 mins before OVA challenge by hematoxylin and eosin staining measured on day 71; format: functional, organism-based
[16] = Inhibition of bovine trypsin using benzoyl-L-arginine p-nitroanilide as substrate after 5 to 60 mins; design: species or system Bos taurus
[17] = species: Mus musculus; experiment: Antiasthmatic activity in OVA-immunized BALB/c mouse chronic asthma model assessed as inhibition of tryptase-like protease activity in BAL fluid using tosyl-gly […]-lys-pNA as substrate after 1 hr; format: functional, organism-based
[18] = species: Mus musculus; experiment: Antiasthmatic activity in OVA-immunized BALB/c mouse chronic asthma model assessed as reduction of IgE level in serum at 100 nM treated intranasally on days 15, 16, 22, and 23 at 30 mins before OVA challenge measured on day 71; format: functional, organism-based
[19] = species: Mus musculus; experiment: Antiasthmatic activity in OVA-immunized BALB/c mouse acute asthma model assessed as reduction of IgE level in serum at 100 nM treated intranasally on days 15, 16, 22, and 23 at 30 mins before OVA challenge; format: functional, organism-based
[20] = species: Mus musculus; experiment: Antiasthmatic activity in OVA-immunized BALB/c mouse chronic asthma model assessed as reduction of mMCP-1 level in serum at 100 nM treated intranasally at 30 mins before OVA challenge measured after 30 mins by ELISA; format: functional, organism-based
[21] = species: Mus musculus; experiment: Antiasthmatic activity in OVA-immunized BALB/c mouse acute asthma model assessed as reduction of methacholine-induced airway hyperreactivity at 100 nM treated intranasally on days 15, 16, 22, and 23 at 30 mins before OVA challenge; format: functional, organism-based
[22] = species: Mus musculus; experiment: Antiasthmatic activity in OVA-immunized BALB/c mouse chronic asthma model assessed as reduction of methacholine-induced airway hyperreactivity at 100 nM treated intranasally on days 15, 16, 22, and 23 at 30 mins before OVA challenge measured on day 71; format: functional, organism-based
[23] = species: Mus musculus; experiment: Antiasthmatic activity in OVA-immunized BALB/c mouse chronic asthma model assessed as plasma histamine release at 0.1 uM treated intranasally after 5 mins by immunoassay; format: functional, organism-based
[24] = species: Mus musculus; experiment: Antiasthmatic activity in OVA-immunized BALB/c mouse acute asthma model assessed as reduction of IgG2a level in serum at 100 nM treated intranasally on days 15, 16, 22, and 23 at 30 mins before OVA challenge; format: functional, organism-based
[25] = species: Mus musculus; experiment: Antiasthmatic activity in OVA-immunized BALB/c mouse chronic asthma model assessed as inhibition of airway inflammation at 100 nM treated intranasally on days 15, 16, 22, and 23 at 30 mins before OVA challenge measured on day 71; format: functional, organism-based
[26] = species: Mus musculus; experiment: Antiasthmatic activity in lymphnode cells isolated from 25 days OVA-immunized BALB/c mouse acute asthma model assessed as reduction of IFN-gamma production at 100 nM measured after 3 days re-stimulation by ELISA; format: functional, cell-based
[27] = system: Splenocyte; experiment: Antiasthmatic activity in splenocytes isolated from 25 days OVA-immunized BALB/c mouse acute asthma model assessed as reduction of IFN-gamma production at 100 nM measured after 3 days re-stimulation by ELISA; format: functional, cell-based
[28] = species: Mus musculus; experiment: Antiasthmatic activity in OVA-immunized BALB/c mouse chronic asthma model assessed as plasma histamine release at 10 uM treated intranasally after 5 mins by immunoassay; format: functional, organism-based

CC[C@H](C)[C@@H]1NC(=O)[C@@H]2CCCN2C(=O)[C@@H]2CCCN2C(=O)[C@H]([C@@H](C)CC)NC(=O)[C@H](CO)NC(=O)[C@H](CCCCN)NC(=O)[C@H]([C@@H](C)O)NC(=O)[C@@H]2CSSC[C@H](NC1=O)C(=O)N[C@@H](Cc1ccccc1)C(=O)N1CCC[C@H]1C(=O)N[C@@H](CC(=O)O)C(=O)NCC(=O)N[C@@H](CCCNC(=N)N)C(=O)N2
Activity [1]: Active | Activity [2]: Active | Activity [3]: inactive | Activity [4]: Active | Activity [5]: Active | Activity [6]: Active | Activity [7]: Active | Activity [8]: Active | Activity [9]: Active | Activity [10]: Active | Activity [11]: Active | inhibition (INH) [12]: 60% | Activity [13]: Active | Activity [14]: Active | Activity [15]: Active | Ki [16]: 8 nM | inhibition [17]: Dose-dependent effect | Activity [18]: Active | Activity [19]: Active | Activity [20]: Active | Activity [21]: Active | Activity [22]: Active | Activity [23]: inactive | Activity [24]: inactive | Activity [25]: Active

CC(C)C[C@H](N)C(=O)N[C@H](C(=O)N[C@@H](CCCNC(=N)N)C(=O)NCC(=O)N[C@H]1CSSC[C@@H](C(=O)N[C@@H](Cc2ccccc2)C(=O)N[C@H](C(=O)N[C@@H](CCCNC(=N)N)C(=O)O)C(C)C)NC(=O)[C@@H]2CCCN2C(=O)[C@H](CCCCN)NC(=O)[C@@H]2CCCN2C(=O)[C@@H]2CCCN2C(=O)[C@H](Cc2ccc(O)cc2)NC(=O)[C@H](CO)NC(=O)[C@H](CCCCN)NC(=O)[C@H]([C@@H](C)O)NC(=O)[C@H](Cc2c[nH]c3ccccc23)NC1=O)C(C)C (H-LVRGCWTKSYPPKPCFVR-OH; disulfide 5-15)
Activity [1]: Active | Activity [2]: Active | Activity [3]: Active | Activity [4]: Active | Activity [5]: Active | Activity [6]: Active | Activity [26]: inactive | Activity [7]: Active | Activity [8]: Active | Activity [9]: Active | Activity [27]: Active | Activity [10]: Active | Activity [11]: Active | inhibition (INH) [12]: 60% | Activity [13]: Active | Activity [14]: Active | Activity [15]: Active | Ki [16]: 110 nM | inhibition [17]: Dose-dependent effect | Activity [18]: Active | Activity [19]: Active | Activity [20]: Active | Activity [21]: Active | Activity [22]: Active | Activity [28]: Active | Activity [23]: inactive | Activity [24]: inactive | Activity [25]: Active
